IC50 data for 13 compounds are collected here from patent US9694016B2 (Novartis AG, priority 2013, dated 2017).

In one experiment the target is b-Raf (V600E) (Homo sapiens (Human), UniProt P15056, V600E). Particulars: read-out: b-Raf IC-50; AlphaScreen, 60 min pre-incubation, 3 hours reaction.
Chain of b-Raf (V600E) (P15056 whole entry V600E): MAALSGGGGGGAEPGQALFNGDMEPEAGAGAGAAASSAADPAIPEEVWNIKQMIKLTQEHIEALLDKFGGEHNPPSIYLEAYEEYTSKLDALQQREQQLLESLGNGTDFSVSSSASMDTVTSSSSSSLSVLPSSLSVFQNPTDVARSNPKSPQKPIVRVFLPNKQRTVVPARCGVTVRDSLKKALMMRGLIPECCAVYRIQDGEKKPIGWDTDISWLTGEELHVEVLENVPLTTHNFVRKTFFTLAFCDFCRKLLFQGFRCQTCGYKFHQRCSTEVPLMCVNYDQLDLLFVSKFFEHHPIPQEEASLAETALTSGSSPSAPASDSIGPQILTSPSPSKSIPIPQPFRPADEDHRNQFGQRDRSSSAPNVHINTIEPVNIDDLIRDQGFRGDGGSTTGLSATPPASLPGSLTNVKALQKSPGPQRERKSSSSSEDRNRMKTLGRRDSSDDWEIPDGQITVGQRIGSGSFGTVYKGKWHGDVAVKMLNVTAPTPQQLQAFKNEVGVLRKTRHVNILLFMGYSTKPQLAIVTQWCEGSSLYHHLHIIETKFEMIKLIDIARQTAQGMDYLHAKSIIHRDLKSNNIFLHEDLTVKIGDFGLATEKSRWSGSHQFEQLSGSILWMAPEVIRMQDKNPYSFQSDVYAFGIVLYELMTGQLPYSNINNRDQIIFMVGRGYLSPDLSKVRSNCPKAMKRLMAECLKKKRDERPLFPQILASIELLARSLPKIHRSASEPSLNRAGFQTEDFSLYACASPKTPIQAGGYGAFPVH
For `Cc1ccc(NC(=O)c2cccc(CC#N)c2)cc1-c1cc(N2CCOCC2)c(=O)n(C)n1` [Example 652, 3-(cyanomethyl)-N-(4-methyl-3-(1-methyl-5-morpholino-6-oxo-1,6-dihydropyridazin-3-yl)phenyl)benzamide], the IC50 was found to be 6.7 nM. Consider `CCC(F)(F)c1cc(C(=O)Nc2cnc(C)c(-c3cc(N4CCOCC4)c(OC)nn3)c2)ccn1` [Example 607, 2-(1,1-difluoropropyl)-N-(5-(6-methoxy-5-morpholinopyridazin-3-yl)-6-methylpyridin-3-yl)isonicotinamide], for which the IC50 was determined as 4.7 nM. For the compound `COCCN(C)c1cc(C(=O)Nc2ccc(C)c(-c3cc(N4CCOCC4)c(=O)n(C)c3)c2)ccn1` [Example 455, 2-((2-methoxyethyl)(methyl)amino)-N-(4-methyl-3-(1-methyl-5-morpholino-6-oxo-1,6-dihydropyridin-3-yl)phenyl)isonicotinamide], the IC50 stood at 2.8 nM.

For the compound `Cc1ncc(NC(=O)c2cccc(C(F)F)c2)cc1-c1cc(N2CCOCC2)n(C)c(=O)c1` [Example 506, 3-(difluoromethyl)-N-(1′,2-dimethyl-6′-morpholino-2′-oxo-1′,2′-dihydro-[3,4′-bipyridin]-5-yl)benzamide], the IC50 came out at 1.8 nM.

Staying with this experiment, now noted: read-out: b-Raf IC-50; AlphaScreen, 60 min pre-incubation, reaction 3 hours at room temperature.
On to `Cc1ncc(NC(=O)c2cc(C(C)(C)C#N)ccn2)cc1-c1cnc(OC(C)C)c(N2CCOCC2)c1` [Example 958, 4-(2-cyanopropan-2-yl)-N-(6′-isopropoxy-2-methyl-5′-morpholino-[3,3′-bipyridin]-5-yl)picolinamide], for which the IC50 was determined as 9.15 nM. Same read-out and setting: then `Cc1ncc(NC(=O)c2ccnc(C(C)(F)F)c2)cc1-c1cnc(OC(C)C)c(N2CCOCC2)c1` [Example 952, 2-(1,1-difluoroethyl)-N-(6′-isopropoxy-2-methyl-5′-morpholino-[3,3′-bipyridin]-5-yl)isonicotinamide], with 1.98 nM; and `Cc1ccc(NC(=O)c2cc(C(F)(F)F)ccn2)cc1-c1cc(N2CCOCC2)c(S(C)(=O)=O)nn1` [Example 933, N-(4-methyl-3-(6-(methylsulfonyl)-5-morpholinopyridazin-3-yl)phenyl)-4-(trifluoromethyl)picolinamide], with 0.78 nM; and `Cc1ccc(NC(=O)c2ccnc(S(C)(=O)=O)c2)cc1-c1cnc(OC[C@H](C)O)c(N2CCOCC2)c1` [Example 989, (S)—N-(3-(6-(2-hydroxypropoxy)-5-morpholinopyridin-3-yl)-4-methylphenyl)-2-(methylsulfonyl)isonicotinamide], with 1.96 nM. Same read-out and setting: then `Cc1ccc(NC(=O)c2ccnc(C3(C#N)CC3)c2)cc1-c1cc(NCCO)nc(N2CCOCC2)c1F` [Example 1011, 2-(1-cyanocyclopropyl)-N-(3-(3-fluoro-6-((2-hydroxyethyl)amino)-2-morpholinopyridin-4-yl)-4-methylphenyl)isonicotinamide], with 24.5 nM.

Staying with this experiment, now noted: read-out: b-Raf IC-50; Table 2; AlphaScreen, 3 hours reaction.
On to `Cc1ccc(NC(=O)c2ccnc(C(C)(C)C#N)c2)cc1-c1cc(N2CCOCC2)c(=O)n(CCC#N)c1` [Example 335, N-(3-(1-(2-cyanoethyl)-5-morpholino-6-oxo-1,6-dihydropyridin-3-yl)-4-methylphenyl)-2-(2-cyanopropan-2-yl)isonicotinamide], for which the IC50 came out at 4.4 nM. As to `CCn1cc(C(=O)Nc2ccc(C)c(-c3cc(N4CCOCC4)c(=O)n(C)c3)c2)c(C)n1` [Example 365, 1-ethyl-3-methyl-N-(4-methyl-3-(1-methyl-5-morpholino-6-oxo-1,6-dihydropyridin-3-yl)phenyl)-1H-pyrazole-4-carboxamide], the IC50 worked out at 85.9 nM.

Take `Cn1cc(-c2cc(C(=O)Nc3cccc(C(F)F)c3)ccc2Cl)cc(N2CCOCC2)c1=O` [Example 426, 4-chloro-N-(3-(difluoromethyl)phenyl)-3-(1-methyl-5-morpholino-6-oxo-1,6-dihydropyridin-3-yl)benzamide]: the IC50 was 2.4 nM. As for `Cc1ncc(NC(=O)c2ccnc(C(C)(C)C)c2)cc1-c1cc(N2CCOCC2)c(=O)n(C)c1` [Example 399, 2-(tert-butyl)-N-(1′,2-dimethyl-5′-morpholino-6′-oxo-1′,6′-dihydro-[3,3′-bipyridin]-5-yl)isonicotinamide], the IC50 worked out at 42.7 nM.
